In brackets after ≈: the same amount, converted by molar mass. Read-outs that look alike come from different tables or passages of the source.

Data on nine compounds can be found in patent publication US5804599A, “Interleukin-1 production inhibiting compound” (Kyowa Hakko Kogyo Co., Ltd., priority 1994, dated 1998).

One series relates to bacteria. Conditions: in words; cited from earlier work.
Another series relates to IL-1 β. The series can be described thus: Inhibiting activity of the production of IL-1 (LPS-stimulated, PMA-differentiated THP-1 cells, ELISA). The series is classed as cell-based. Conditions: Homo sapiens, read-out: IC50 (50% inhibitory concentration) of IL-1 production. The procedure:
Inhibiting Activity of the production of IL-1
With respect to Compound (I) of the present invention, the inhibiting activity of production of IL-1 β derived from THP-1 cells (ATCC No. TIB 202) of a human monocyte was examined. The amount of IL-1 β was determined by the ELISA method.
The THP-1 cells were suspended in an RPMI 1640 culture solution comprising 10% inactivated fetal bovine serum at a concentration of 1×10^5 cells/ml. The suspension was charged in a 24-well plate at a volume of 1 ml/well. PMA (phorbol 12-myristate 13-acetate, made by Wako Pure Chemical Industries, Ltd.; final concentration 30 nM) was added thereto, and the mixture was cultured in a mixed gas of 5% CO2 and 95% air at 37° C. for 65 hours. The cells were differentiated in a macrophage form.
The cultivation plate was gently washed with a serum-free RPMI 1640 culture solution to remove the cells not adhered thereto, and the residue was cultured for 4 hours in a serum-free RPMI 1640 culture solution (1 ml/well) to which LPS (lipopolysaccharide, made by Difco Laboratories; a final concentration 25 μg/ml) and a compound to be tested were added simultaneously.
After the completion of the cultivation, the amount of IL-1 β which was released in the cultivated supernatant was determined using an IL-1 β determination kit (made by Amersham Corp.).
Percent inhibition of IL-1 production was calculated using the following equation to obtain IC50 (50% inhibitory concentration).
Percent inhibition of IL-1 production (%) =[(A-B)/(A-C)]×100
A: amount of IL-1 produced when only LPS is added
B: amount of IL-1 produced when LPS and the compound to be tested are added
C: amount of IL-1 when LPS is not added
For orientation: An ELISA detects its analyte on a solid surface through an enzyme-linked reagent.

Series [1] relates to Bacillus subtilis No. 10707. As to the kind of experiment: Antibacterial activity (MIC), agar dilution method. The series is classed as cell-based. Conditions: pH 7.0. Here is the method: (§1) Antibacterial activity was determined by an agar dilution method using a medium (pH 7.0) comprising 3 g/l bactotrypton (made by Difco Laboratories), 3 g/l meat extract, 1 g/l yeast extract, 1 g/l glucose and 16 g/l agar.
In general terms: In agar dilution, organisms are placed on agar that contains the substance at set levels.

For series [2], the system named is Enterococcus faecium ATCC 10541. As to the kind of experiment: Antibacterial activity (MIC), agar dilution method. The series is classed as cell-based. Conditions: ATCC10541, pH 7.0. The procedure: as §1
In series [3] the test system is Staphylococcus aureus ATCC 6538P. As to the kind of experiment: Antibacterial activity (MIC), agar dilution method. The series is classed as cell-based. Conditions: ATCC6538P, pH 7.0. The procedure:
as §1

[4] abbreviates: IL-1 β release from THP-1 cells, LPS 25 μg/ml, 4 hours, serum-free RPMI 1640.

For `O=C(/C=C/C=C/C1CCCCC1)NC1=CC(O)(/C=C/C=C/C=C/C(=O)NC2=C(O)CCC2=O)C2OC2C1=O` (stereo not drawn) [Alisamycin], the antibacterial activity entry in the series with bacteria was “known to exhibit antibacterial activity”.
Take `CC(C)C/C=C/C=C/C(=O)NC1=CC(O)(/C=C/C=C/C=C/C(=O)NC2=C(O)CCC2=O)C2OC2C1=O` (stereo not drawn) [EI-1511-3]: the IC50 in the series on IL-1 β (setting [4]) stood at 5.4 µM. Moreover, the minimal inhibitory concentration (MIC) in series [1], in series [2] and in series [3] was 20 µg/mL (≈ 40.4 µM) in each case. For the same compound, the Solubility entry in “Solubility” (in acetone) was “easily soluble”; in the series “Solubility” (in dimethyl sulfoxide), “easily soluble”; in “Solubility” (in methanol), “soluble”.
In the case of `CCC(C)/C=C/C=C/C=C/C(=O)NC1=CC(O)(/C=C/C=C/C=C/C(=O)NC2=C(O)CCC2=O)C2OC2C1=O` (stereo not drawn) [EI-1511-5], in the series on IL-1 β (THP-1, 4 h), the IC50 was 3.6 µM. Moreover, the MIC in series [1], in series [2] and in series [3] was 20 µg/mL (≈ 38.4 µM) in each case. In addition, the Solubility result in the series “Solubility” (in acetone) is “easily soluble”; in “Solubility” (in dimethyl sulfoxide), “easily soluble”; in “Solubility” (in methanol), “soluble”.
`CCCCC(C)/C=C/C(=O)NC1=CC(O)(/C=C/C=C/C=C/C(=O)NC2=C(O)CCC2=O)C2OC2C1=O` (stereo not drawn) [EI-1625-2]: the IC50 with IL-1 β (setting [4]) was 5.4 µM. Moreover, the minimal inhibitory concentration (MIC) in series [1] was 5 µg/mL (≈ 10.1 µM); in series [2], 20 µg/mL (≈ 40.3 µM); in series [3], 10 µg/mL (≈ 20.1 µM).
On to `CCCC[C@@H](C)/C=C(C)/C=C(\C)C(=O)NC1=C[C@@](O)(/C=C/C=C/C=C/C(=O)NC2=C(O)CCC2=O)[C@@H]2O[C@@H]2C1=O` [Manumycin A], for which, in the series on bacteria, the antibacterial activity result is “known to exhibit antibacterial activity”.
`CCCCC(C)/C=C(\C)C(=O)NC1=CC(O)(/C=C/C=C/C=C/C(=O)NC2=C(O)CCC2=O)C2OC2C1=O` (stereo not drawn) [Manumycin B]: in the series on bacteria, the antibacterial activity entry was “known to exhibit antibacterial activity”.
Take `CCCCC(C)/C=C(C)/C=C/C(=O)NC1=CC(O)(/C=C/C=C/C=C/C(=O)NC2=C(O)CCC2=O)C2OC2C1=O` (stereo not drawn) [Manumycin C]: the antibacterial activity result with bacteria is recorded as “known to exhibit antibacterial activity”.
As for `CC(C)/C=C/C=C/C=C/C(=O)NC1=C[C@@](O)(/C=C/C=C/C=C/C(=O)NC2=C(O)CCC2=O)C2OC2C1=O` (stereo partly drawn) [Manumycin G], the antibacterial activity entry in the series with bacteria was “known to exhibit antibacterial activity”.
For `CC(C)C/C=C/C=C/C=C/C(=O)NC1=CC(O)(/C=C/C=C/C=C/C(=O)NC2=C(O)CCC2=O)C2OC2C1=O` (stereo not drawn) [U-56407], the antibacterial activity entry in the series on bacteria is “known to exhibit antibacterial activity”.

For orientation: MIC means the lowest concentration that inhibits growth of the organism.
